The source of these data is ChEMBL document CHEMBL1126772, “Activated ketone based inhibitors of human renin” (J Med Chem, 1993).

The structures appear in SMILES notation. Square brackets hold non-standard residues; d marks the D form. Peptide text beside a SMILES is read from it. * marks the point of attachment. ξ: configuration not given here. ξCha = NC(CC1CCCCC1)C(=O)O; Boc = CC(C)(C)OC(=O)*; CF3 = FC(F)(F)*

Holding throughout (settings): read-out: I50
One assay deals with T1, Renin (Homo sapiens, UniProt P00797).
T1 sequence (P00797 whole entry): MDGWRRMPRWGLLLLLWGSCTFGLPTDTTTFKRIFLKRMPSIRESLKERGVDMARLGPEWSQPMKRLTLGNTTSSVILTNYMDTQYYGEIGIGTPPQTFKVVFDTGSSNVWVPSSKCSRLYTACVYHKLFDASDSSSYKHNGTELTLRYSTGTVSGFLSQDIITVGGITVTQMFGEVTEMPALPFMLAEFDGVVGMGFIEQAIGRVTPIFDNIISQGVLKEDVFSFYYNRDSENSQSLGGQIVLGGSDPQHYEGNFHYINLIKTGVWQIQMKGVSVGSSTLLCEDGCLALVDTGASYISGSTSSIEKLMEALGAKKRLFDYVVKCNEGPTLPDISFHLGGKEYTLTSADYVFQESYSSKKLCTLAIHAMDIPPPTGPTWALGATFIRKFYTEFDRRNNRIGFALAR
Kind of assay: In vitro inhibitory potency against human kidney renin. The class given is tissue-based.

A further assay deals with T2, Cathepsin D (Bos taurus, UniProt P80209).
T2 sequence (P80209 whole entry): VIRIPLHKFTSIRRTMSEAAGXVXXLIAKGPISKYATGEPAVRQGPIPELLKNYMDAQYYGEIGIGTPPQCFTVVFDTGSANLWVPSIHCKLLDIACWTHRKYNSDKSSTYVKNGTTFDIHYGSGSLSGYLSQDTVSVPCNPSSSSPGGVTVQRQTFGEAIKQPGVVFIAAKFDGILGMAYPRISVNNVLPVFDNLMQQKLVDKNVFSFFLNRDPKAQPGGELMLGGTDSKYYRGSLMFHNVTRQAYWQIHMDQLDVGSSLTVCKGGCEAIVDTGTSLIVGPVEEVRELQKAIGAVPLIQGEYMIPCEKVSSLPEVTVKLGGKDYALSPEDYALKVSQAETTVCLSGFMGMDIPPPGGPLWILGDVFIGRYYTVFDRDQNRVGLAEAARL
Kind of assay: In vitro inhibitory activity against bovine cathepsin D.

The next assay has as its target Pepsin A (Sus scrofa, UniProt P00791). Kind of assay: In vitro inhibitory activity against aspartic proteinases pepsin from porcine.

Chain of Pepsin A (P00791 whole entry): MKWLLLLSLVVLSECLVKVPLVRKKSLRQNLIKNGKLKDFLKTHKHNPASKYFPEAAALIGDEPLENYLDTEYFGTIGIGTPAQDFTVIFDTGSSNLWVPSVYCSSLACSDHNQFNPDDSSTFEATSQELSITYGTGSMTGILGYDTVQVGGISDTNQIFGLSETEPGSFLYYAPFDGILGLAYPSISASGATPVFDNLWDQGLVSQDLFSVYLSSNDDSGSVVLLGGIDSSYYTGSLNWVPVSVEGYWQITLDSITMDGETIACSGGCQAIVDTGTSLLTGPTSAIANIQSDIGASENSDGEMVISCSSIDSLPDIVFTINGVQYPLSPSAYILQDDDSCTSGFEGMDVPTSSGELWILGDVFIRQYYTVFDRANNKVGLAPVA

Regarding `CCOC(=O)C(=O)C(CC1CCCCC1)NC(=O)[C@H](CC(C)C)NC(=O)OCc1ccccc1` (stereo partly drawn), the IC50 at Renin is 52 µM.
On the same count and under the same terms, with `CCOC(=O)[C@H](O)[C@H](CC1CCCCC1)NC(=O)[C@H](CC(C)C)NC(=O)[C@H](Cc1ccccc1)NC(=O)OC(C)(C)C` the figure was 0.0053 µM; with `CCCC(=O)[C@H](O)[C@H](CC1CCCCC1)NC(=O)[C@H](CC(C)C)NC(=O)[C@H](Cc1ccccc1)NC(=O)C1CCCC1`, 0.014 µM; with `CCCC(=O)C(=O)[C@H](CC1CCCCC1)NC(=O)[C@H](CC(C)C)NC(=O)[C@H](Cc1ccccc1)NC(=O)OC(C)(C)C`, 0.052 µM.
On the same count and under the same terms, with `CCCC(=O)C(=O)[C@H](CC1CCCCC1)NC(=O)[C@H](CC(C)C)NC(=O)[C@H](Cc1ccccc1)NC(=O)C1CCCC1` the figure was 0.028 µM; with `CCOC(=O)[C@H](O)[C@H](CC1CCCCC1)NC(=O)[C@H](CC(C)C)NC(=O)[C@@H](CC(=O)N1CCOCC1)Cc1ccccc1`, 0.0047 µM; with `CCCC1([C@H](O)[C@H](CC2CCCCC2)NC(=O)[C@H](CC(C)C)NC(=O)[C@H](Cc2ccccc2)NC(=O)OC(C)(C)C)SCCCS1`, 2.2 µM.
Turning to `CCCC(=O)[C@H](O)[C@H](CC1CCCCC1)NC(=O)[C@H](CC(C)C)NC(=O)[C@H](Cc1ccccc1)NC(=O)OC(C)(C)C`, the IC50 on Renin was 0.023 µM.
Still for that read-out and setting: with `CCCC(=O)[C@H](O)[C@H](CC1CCCCC1)NC(=O)[C@H](Cc1c[nH]cn1)NC(=O)OC(C)(C)C` the figure was 420 µM.
With `CCOC(=O)C(=O)C(CC1CCCCC1)NC(=O)[C@H](CC(C)C)NC(=O)[C@H](Cc1ccccc1)NC(=O)OC(C)(C)C` (stereo partly drawn), the IC50 worked out at 1.3 µM on Cathepsin D, 0.015 µM on Renin and 2.7 µM on Pepsin A.
Take `CC(C)C[C@H](NC(=O)[C@H](Cc1ccccc1)NC(=O)OC(C)(C)C)C(=O)NC(CC1CCCCC1)C(=O)C(=O)O` (stereo partly drawn): the IC50 at Renin stood at 64 µM.
Still for that read-out and setting: with `CCOC(=O)C(=O)[C@H](CC1CCCCC1)NC(=O)[C@H](CC(C)C)NC(=O)[C@@H](CC(=O)N1CCOCC1)Cc1ccccc1` the figure was 0.0041 µM; with `CCOC(=O)[C@@H](O)[C@H](CC1CCCCC1)NC(=O)[C@H](CC(C)C)NC(=O)[C@H](Cc1ccccc1)NC(=O)OC(C)(C)C`, 0.11 µM.
Same read-out and setting: with `CC(C)C[C@H](NC(=O)[C@H](Cc1ccccc1)NC(=O)OC(C)(C)C)C(=O)N[C@@H](CC1CCCCC1)C(C)O` (stereo partly drawn) the figure was 3.2 µM; with `CC(C)C[C@H](NC(=O)[C@H](Cc1ccccc1)NC(=O)OC(C)(C)C)C(=O)NC(CC1CCCCC1)C(O)C(F)(F)F` (stereo partly drawn), 4 µM.
Take `CC(C)C[C@H](NC(=O)[C@H](Cc1ccccc1)NC(=O)OC(C)(C)C)C(=O)NC(CC1CCCCC1)C(=O)C(F)(F)F` (stereo partly drawn) (Boc-Phe-Leu-[ξCha]-CF3): on Renin, the IC50 turned out to be 0.25 µM.
